Values of other authors, collected in PubChem BioAssay AID1259409 (Chemical Carcinogenesis Research Information System (CCRIS), 2018).
Values joined by “and” are separate entries in the source; they are usually repeats but may differ in a detail not shown here. Identical values can stand only once.

Tested on: rodent chemically induced tumor inhibition, incidence and multiplicity
Assay: CCRIS tumor inhibitor studies

SMILES: O=c1cc(-c2ccccc2)oc2ccc3ccccc3c12
- tumour outcome (control, treated, inhibition, significance) (Carcinogen: 2-AMINO-1-METHYL-6-PHENYLIMIDAZO[4,5-B]PYRIDINE [105650-23-5], Dose [Inhibitor]: 1000 PPM IN DIET FOR 4 WK BEGINNING WK PRIOR TO FIRST CARCINOGEN DOSE (STUDY DURATION: 25 WK), Route [Inhibitor]: ORAL, Species: RAT, Strain/Sex: SPRAGUE-DAWLEY/FEMALE, Target Tissue: Type of Lesion: MAMMARY GLAND: FIBROADENOMA OR DUCTAL CARCINOMA, Dose [Carcinogen]: 85 MG/KG BW 2X/WK FOR 4 WK (STUDY DURATION: 25 WK), Promoter: NONE): 67.7%, 12.5%, 82%, p<0.001
- tumour outcome (control, treated, inhibition, significance) (Carcinogen: 7,12-DIMETHYLBENZ[A]ANTHRACENE [57-97-6], Dose [Inhibitor]: 500 PPM IN DIET FOR 10 WK BEGINNING 1 WK PRIOR TO FIRST CARCINOGEN DOSE (STUDY DURATION: 11 MONTHS), Route [Inhibitor]: ORAL, Species: FISH, Strain/Sex: RAINBOW TROUT/MALE, FEMALE, Target Tissue: Type of Lesion: LIVER: TUMOR, Dose [Carcinogen]: 800 PPM IN DIET FOR 9 WK (STUDY DURATION: 11 MONTHS), Promoter: NONE): 4%, 7%, -75%, not significant
- tumour outcome (control, treated, inhibition, significance) (Carcinogen: 7,12-DIMETHYLBENZ[A]ANTHRACENE [57-97-6], Dose [Inhibitor]: 500 PPM IN DIET FOR 10 WK BEGINNING 1 WK PRIOR TO FIRST CARCINOGEN DOSE (STUDY DURATION: 11 MONTHS), Route [Inhibitor]: ORAL, Species: FISH, Strain/Sex: RAINBOW TROUT/MALE, FEMALE, Target Tissue: Type of Lesion: STOMACH: TUMOR, Dose [Carcinogen]: 800 PPM IN DIET FOR 9 WK (STUDY DURATION: 11 MONTHS), Promoter: NONE): 92%, 28%, 70%, p<0.001
- tumour outcome (control, treated, inhibition, significance) (Carcinogen: 7,12-DIMETHYLBENZ[A]ANTHRACENE [57-97-6], Dose [Inhibitor]: 500 PPM IN DIET FOR 10 WK BEGINNING 1 WK PRIOR TO FIRST CARCINOGEN DOSE (STUDY DURATION: 11 MONTHS), Route [Inhibitor]: ORAL, Species: FISH, Strain/Sex: RAINBOW TROUT/MALE, FEMALE, Target Tissue: Type of Lesion: SWIM BLADDER: TUMOR, Dose [Carcinogen]: 800 PPM IN DIET FOR 9 WK (STUDY DURATION: 11 MONTHS), Promoter: NONE): 46%, 27%, 41%, p<0.001
- tumour outcome (control, treated, inhibition, significance) (Carcinogen: 7,12-DIMETHYLBENZ[A]ANTHRACENE, 57-97-6, Dose [Inhibitor]: 100 UG APPLIED ONCE 5 MIN BEFORE DMBA (STUDY DURATION: 28 WK), Route [Inhibitor]: DERMAL, Species: MOUSE, Strain/Sex: CD-1/FEMALE, Target Tissue: Type of Lesion: SKIN: PAPILLOMA, Dose [Carcinogen]: 2.56 UG APPLIED ONCE 5 MIN AFTER INHIBITOR, Promoter: 12-O-TETRADECANOYLPHORBOL-13-ACETATE, 16561-29-8): 82%, 65%, 21%, not calculated
- tumour outcome (control, treated, inhibition, significance) (Carcinogen: 7,12-DIMETHYLBENZ[A]ANTHRACENE, 57-97-6, Dose [Inhibitor]: 1000 UG APPLIED ONCE 5 MIN BEFORE DMBA (STUDY DURATION: 28 WK), Route [Inhibitor]: DERMAL, Species: MOUSE, Strain/Sex: CD-1/FEMALE, Target Tissue: Type of Lesion: SKIN: PAPILLOMA, Dose [Carcinogen]: 2.56 UG APPLIED ONCE 5 MIN AFTER INHIBITOR, Promoter: 12-O-TETRADECANOYLPHORBOL-13-ACETATE, 16561-29-8): 82%, 60%, 27%, not calculated
- tumour outcome (control, treated, inhibition, significance) (Carcinogen: DIETHYLNITROSAMINE, 55-18-5, Dose [Inhibitor]: 500 PPM IN DIET FOR 6 WK PRIOR TO CARCINOGEN DOSE (STUDY DURATION: 48 WK), Route [Inhibitor]: ORAL, Species: FISH, Strain/Sex: MT. SHASTA RAINBOW/MALE, FEMALE, Target Tissue: Type of Lesion: LIVER: HEPATOCELLULAR CARCINOMA AND HEPATOCHOLANGIOCELLULAR CARCINOMA, Dose [Carcinogen]: 250 PPM AQUEOUS SOLUTION FOR 24 HR, Promoter: NONE USED): 105/131 (80%), 90/98 (92%), -15%, p=0.0102
- tumour outcome (control, treated, inhibition, significance) (Carcinogen: N-NITROSOETHYLUREA, 759-73-9, Dose [Inhibitor]: 0, 150 MG/KG IN OLIVE OIL 48 HR PRIOR TO CARCINOGEN DOSE (STUDY DURATION: 8 WK), Route [Inhibitor]: INTRAPERITONEAL, Species: MOUSE, Strain/Sex: AKR/FEMALE, Target Tissue: Type of Lesion: LUNG: TUMOR, Dose [Carcinogen]: 8 MG/KG IN 0.22 MOLAR SODIUM CITRATE BUFFER 1/WK FOR 4 WK, Promoter: NONE USED): 8/32 (25%), 8/35 (23%), 8%, not calculated
- tumour outcome (control, treated, inhibition, significance) (Carcinogen: N-NITROSOETHYLUREA, 759-73-9, Dose [Inhibitor]: 0, 150 MG/KG IN OLIVE OIL 48 HR PRIOR TO CARCINOGEN DOSE (STUDY DURATION: 8 WK), Route [Inhibitor]: INTRAPERITONEAL, Species: MOUSE, Strain/Sex: C3H/HE/FEMALE, Target Tissue: Type of Lesion: LUNG: TUMOR, Dose [Carcinogen]: 8 MG/KG IN 0.22 MOLAR SODIUM CITRATE BUFFER 1/WK FOR 4 WK, Promoter: NONE USED): 26/33 (79%), 25/29 (86%), -9%, not calculated
- tumour outcome (control, treated, inhibition, significance) (Carcinogen: N-NITROSOETHYLUREA, 759-73-9, Dose [Inhibitor]: 0, 150 MG/KG IN OLIVE OIL 48 HR PRIOR TO CARCINOGEN DOSE (STUDY DURATION: 8 WK), Route [Inhibitor]: INTRAPERITONEAL, Species: MOUSE, Strain/Sex: C57BL/FEMALE, Target Tissue: Type of Lesion: LUNG: TUMOR, Dose [Carcinogen]: 8 MG/KG IN 0.22 MOLAR SODIUM CITRATE BUFFER 1/WK FOR 4 WK, Promoter: NONE USED): 9/35 (26%), 17/29 (57%), -119%, not calculated
- tumour outcome (control, treated, inhibition, significance) (Carcinogen: N-NITROSOETHYLUREA, 759-73-9, Dose [Inhibitor]: 0, 150 MG/KG IN OLIVE OIL 48 HR PRIOR TO CARCINOGEN DOSE (STUDY DURATION: 8 WK), Route [Inhibitor]: INTRAPERITONEAL, Species: MOUSE, Strain/Sex: DBA/FEMALE, Target Tissue: Type of Lesion: LUNG: TUMOR, Dose [Carcinogen]: 8 MG/KG IN 0.22 MOLAR SODIUM CITRATE BUFFER 1/WK FOR 4 WK, Promoter: NONE USED): 12/34 (35%), 15/34 (44%), -26%, not calculated
- tumour outcome (control, treated, inhibition, significance) (Carcinogen: N-NITROSOETHYLUREA, 759-73-9, Dose [Inhibitor]: 0, 150 MG/KG IN OLIVE OIL 48 HR PRIOR TO CARCINOGEN DOSE (STUDY DURATION: 8 WK), Route [Inhibitor]: INTRAPERITONEAL, Species: MOUSE, Strain/Sex: SWISS/FEMALE, Target Tissue: Type of Lesion: LUNG: TUMOR, Dose [Carcinogen]: 8 MG/KG IN 0.22 MOLAR SODIUM CITRATE BUFFER 1/WK FOR 4 WK, Promoter: NONE USED): 26/27 (96%), 12/16 (75%), 22%, not calculated
- tumour outcome (control, treated, inhibition, significance) (Dose [Inhibitor]: 0, 0.015% IN DIET FOR 9 WK BEGINNING 1 WK PRIOR TO AND CONTINUING DURING CARCINOGEN TREATMENT (STUDY DURATION: 42 WK), Route [Inhibitor]: ORAL, Species: RAT, Strain/Sex: F344/MALE, Target Tissue: Type of Lesion: LIVER: HEPATOMA, Dose [Carcinogen]: 25 UG 5 D/WK FOR 8 WK, Promoter: NONE USED): 15/15 (100%), 4/16 (25%), 75%, not calculated and 15/15 (100%), 5/15 (31%), 69%, not calculated
- tumour outcome (control, treated, inhibition, significance) (Dose [Inhibitor]: 0, 50 PPM IN DIET BEGINNING 8 WK PRIOR TO CARCINOGEN AND CONTINUING FOR 6 WK POST CARCINOGEN (STUDY DURATION: 68 WK), Route [Inhibitor]: ORAL, Species: FISH, Strain/Sex: RAINBOW TROUT, Target Tissue: Type of Lesion: LIVER: HEPATOCELLULAR CARCINOMA, Dose [Carcinogen]: 20 PPB IN DIET FOR 2 WK, Promoter: NONE USED): 43/118 (36%), 20/117 (17%), 53%, p<0.05
- tumour outcome (control, treated, inhibition, significance) (Dose [Inhibitor]: 0, 500 PPM IN DIET BEGINNING 8 WK PRIOR TO CARCINOGEN AND CONTINUING FOR 6 WK POST CARCINOGEN (STUDY DURATION: 68 WK), Route [Inhibitor]: ORAL, Species: FISH, Strain/Sex: RAINBOW TROUT, Target Tissue: Type of Lesion: LIVER: HEPATOCELLULAR CARCINOMA, Dose [Carcinogen]: 20 PPB IN DIET FOR 2 WK, Promoter: NONE USED): 43/118 (36%), 7/120 (6%), 84%, p<0.01
- outcome (Dose [Inhibitor]: 0.005% IN DIET BEGINNING 4 WK PRIOR TO CARCINOGEN DOSE AND CONTINUING FOR 4 ADDITIONAL WK CONCURRENTLY WITH CARCINOGEN D, Route [Inhibitor]: ORAL, Species: FISH, Strain/Sex: MT. SHASTA RAINBOW TROUT, Target Tissue: Type of Lesion: LIVER: CHOLANGIOCELLULAR CARCINOMA OR ADENOMA, Dose [Carcinogen]: 10 PPB IN DIET FOR 4 WK, Promoter: NONE USED): 0/166, 1/177, 0%
- tumour outcome (control, treated, inhibition, significance) (Dose [Inhibitor]: 0.005% IN DIET BEGINNING 4 WK PRIOR TO CARCINOGEN DOSE AND CONTINUING FOR 4 ADDITIONAL WK CONCURRENTLY WITH CARCINOGEN D, Route [Inhibitor]: ORAL, Species: FISH, Strain/Sex: MT. SHASTA RAINBOW TROUT, Target Tissue: Type of Lesion: LIVER: HEPATOCELLULAR CARCINOMA OR MIXED CARCINOMA OR HEPATOCELLULAR ADENOMA, Dose [Carcinogen]: 10 PPB IN DIET FOR 4 WK, Promoter: NONE USED): 39/166 (23%), 7/177 (4%), 83%, p<0.01
- tumour outcome (control, treated, inhibition, significance) (Dose [Inhibitor]: 0.005% IN DIET FOR 8 WK (STUDY DURATION: 1 YR), Route [Inhibitor]: ORAL, Species: FISH, Strain/Sex: MT. SHASTA RAINBOW TROUT, Target Tissue: Type of Lesion: LIVER: CHOLANGIOCELLULAR CARCINOMA OR ADENOMA, Dose [Carcinogen]: 0.5 PPM AQUEOUS SOLUTION FOR 30 MIN EXPOSURE OF EMBRYOS 21 D AFTER FERTILIZATION, Promoter: NONE USED): 8/182 (4%), 7/175 (4%), 0%, not calculated
- outcome (Dose [Inhibitor]: 0.05% IN DIET BEGINNING 4 WK PRIOR TO CARCINOGEN DOSE AND CONTINUING FOR 4 ADDITIONAL WK CONCURRENTLY WITH CARCINOGEN DO, Route [Inhibitor]: ORAL, Species: FISH, Strain/Sex: MT. SHASTA RAINBOW TROUT, Target Tissue: Type of Lesion: LIVER: CHOLANGIOCELLULAR CARCINOMA OR ADENOMA, Dose [Carcinogen]: 10 PPB IN DIET FOR 4 WK, Promoter: NONE USED): 0/166 (0%), 0/172 (0%)
- tumour outcome (control, treated, inhibition, significance) (Dose [Inhibitor]: 0.05% IN DIET BEGINNING 4 WK PRIOR TO CARCINOGEN DOSE AND CONTINUING FOR 4 ADDITIONAL WK CONCURRENTLY WITH CARCINOGEN DO, Route [Inhibitor]: ORAL, Species: FISH, Strain/Sex: MT. SHASTA RAINBOW TROUT, Target Tissue: Type of Lesion: LIVER: HEPATOCELLULAR CARCINOMA OR MIXED CARCINOMA OR HEPATOCELLULAR ADENOMA, Dose [Carcinogen]: 10 PPB IN DIET FOR 4 WK, Promoter: NONE USED): 39/166 (23%), 1/172 (0.6%), 97%, p<0.01
